US20260000676A1, “CHROMAN DERIVATIVES AS ESTROGEN RECEPTOR DEGRADERS” (THE REGENTS OF THE UNIVERSITY OF MICHIGAN, priority 2022, published 2026)
Where a name gives a salt, the structure may show the parent alone.

How the values were obtained:
CRBN/DDB1 = CRBN/DDB1 (Homo sapiens (Human), UniProt Q96SW2); test: HTRF binding assay to CRBN/DDB1; settings: read-out: CRBN HTRF IC50
Protocol: The binding potency was determined using HTRF assay technology (Perkin Elmer). Compounds were serially diluted in DMSO and 0.2 μL volume was transferred to white 384-well plate.

ER [1] = molecular target: T1, ER (Homo sapiens (Human), UniProt P03372); test: In-cell western (ICW) ER degradation assay in MCF-7 cells; format: cell-based; settings: MCF7, 16 hrs; for DC50: ER degradation; for Dmax: MCF7, maximal ER degradation; for MCF7 Dmax %: maximal ER degradation
T1 sequence (P03372 whole entry): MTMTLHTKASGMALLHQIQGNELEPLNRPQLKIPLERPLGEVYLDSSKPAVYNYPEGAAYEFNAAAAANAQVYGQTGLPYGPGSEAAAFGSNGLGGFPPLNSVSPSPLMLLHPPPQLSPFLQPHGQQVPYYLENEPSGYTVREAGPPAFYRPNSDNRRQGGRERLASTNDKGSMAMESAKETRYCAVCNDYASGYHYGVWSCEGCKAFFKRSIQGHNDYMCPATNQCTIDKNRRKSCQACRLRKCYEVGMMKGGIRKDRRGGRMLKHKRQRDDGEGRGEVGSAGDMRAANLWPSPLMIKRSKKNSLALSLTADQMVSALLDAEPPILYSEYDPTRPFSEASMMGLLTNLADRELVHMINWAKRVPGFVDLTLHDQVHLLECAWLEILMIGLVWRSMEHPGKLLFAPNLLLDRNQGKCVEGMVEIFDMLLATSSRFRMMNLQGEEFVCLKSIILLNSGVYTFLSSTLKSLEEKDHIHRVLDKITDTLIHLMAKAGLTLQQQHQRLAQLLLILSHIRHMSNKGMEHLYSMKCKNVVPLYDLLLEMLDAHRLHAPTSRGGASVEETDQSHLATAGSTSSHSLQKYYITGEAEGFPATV

ER [2] = molecular target: T1, ER; test: In-cell western (ICW) ER degradation assay in T47D cells; format: cell-based; settings: 16 hrs; for DC50: ER degradation; for Dmax / T47D Dmax %: maximal ER degradation
Protocol: ERa degradative activity of compounds can be assessed in MCF-7 and T47D Cells. MCF-7 and T47D cell are seeded and are subsequently treated with the compounds at certain concentrations (e.g., 0.02 to 300 nM). DMSO can be used as vehicle control. Cells are fixed and are blocked with Intercept (PBS) Blocking Buffer (e.g., Li-COR, Odyssey Blocking Buffer), and are stained with ER (e.g., 1:500, Cell signaling) primary antibody for overnight at cold room. Secondary Antibody (e.g., IRDye 800CW Goat anti-Rabbit IgG) and CellTag 700 Stain are added in Intercept (PBS) Blocking Buffer. Finally, cell plate is placed in incubator to dry. Image and signal are captured on Odyssey® DLx Imaging System.
Day 3: After 16 hrs of compounds treatment, cells were fixed by 4% PFA and permeabilized with elution buffer (0.1% Triton X-100 in 1% PBS Solution). Subsequently, cells were blocked with Intercept (PBS) Blocking Buffer (Li-COR, Odyssey Blocking Buffer), and were stained with ER (1:500, Cell signaling) primary antibody for overnight at cold room.
Day 4: Remove the buffer, add IRDye 800CW Goat anti-Rabbit IgG Secondary Antibody (1:2000) and CellTag 700 Stain (1:500) in Intercept (PBS) Blocking Buffer. Finally, cell plate is placed in incubator to dry. Image and signal were captured on Odyssey® DLx Imaging System.

Chain of CRBN/DDB1 (Q96SW2 whole entry): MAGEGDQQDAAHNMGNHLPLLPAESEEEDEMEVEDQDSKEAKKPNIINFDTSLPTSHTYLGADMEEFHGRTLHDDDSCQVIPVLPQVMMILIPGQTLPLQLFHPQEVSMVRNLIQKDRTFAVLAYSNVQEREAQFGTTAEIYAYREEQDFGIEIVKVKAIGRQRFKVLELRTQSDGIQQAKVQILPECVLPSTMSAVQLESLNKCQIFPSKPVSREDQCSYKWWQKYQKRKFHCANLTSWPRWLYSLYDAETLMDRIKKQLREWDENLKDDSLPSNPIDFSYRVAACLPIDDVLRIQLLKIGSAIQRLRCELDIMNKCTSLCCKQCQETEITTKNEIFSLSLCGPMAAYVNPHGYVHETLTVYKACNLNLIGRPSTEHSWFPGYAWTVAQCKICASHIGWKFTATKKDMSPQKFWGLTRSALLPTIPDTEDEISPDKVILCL
Chain of CRBN/DDB1 (Q16531 whole entry partner): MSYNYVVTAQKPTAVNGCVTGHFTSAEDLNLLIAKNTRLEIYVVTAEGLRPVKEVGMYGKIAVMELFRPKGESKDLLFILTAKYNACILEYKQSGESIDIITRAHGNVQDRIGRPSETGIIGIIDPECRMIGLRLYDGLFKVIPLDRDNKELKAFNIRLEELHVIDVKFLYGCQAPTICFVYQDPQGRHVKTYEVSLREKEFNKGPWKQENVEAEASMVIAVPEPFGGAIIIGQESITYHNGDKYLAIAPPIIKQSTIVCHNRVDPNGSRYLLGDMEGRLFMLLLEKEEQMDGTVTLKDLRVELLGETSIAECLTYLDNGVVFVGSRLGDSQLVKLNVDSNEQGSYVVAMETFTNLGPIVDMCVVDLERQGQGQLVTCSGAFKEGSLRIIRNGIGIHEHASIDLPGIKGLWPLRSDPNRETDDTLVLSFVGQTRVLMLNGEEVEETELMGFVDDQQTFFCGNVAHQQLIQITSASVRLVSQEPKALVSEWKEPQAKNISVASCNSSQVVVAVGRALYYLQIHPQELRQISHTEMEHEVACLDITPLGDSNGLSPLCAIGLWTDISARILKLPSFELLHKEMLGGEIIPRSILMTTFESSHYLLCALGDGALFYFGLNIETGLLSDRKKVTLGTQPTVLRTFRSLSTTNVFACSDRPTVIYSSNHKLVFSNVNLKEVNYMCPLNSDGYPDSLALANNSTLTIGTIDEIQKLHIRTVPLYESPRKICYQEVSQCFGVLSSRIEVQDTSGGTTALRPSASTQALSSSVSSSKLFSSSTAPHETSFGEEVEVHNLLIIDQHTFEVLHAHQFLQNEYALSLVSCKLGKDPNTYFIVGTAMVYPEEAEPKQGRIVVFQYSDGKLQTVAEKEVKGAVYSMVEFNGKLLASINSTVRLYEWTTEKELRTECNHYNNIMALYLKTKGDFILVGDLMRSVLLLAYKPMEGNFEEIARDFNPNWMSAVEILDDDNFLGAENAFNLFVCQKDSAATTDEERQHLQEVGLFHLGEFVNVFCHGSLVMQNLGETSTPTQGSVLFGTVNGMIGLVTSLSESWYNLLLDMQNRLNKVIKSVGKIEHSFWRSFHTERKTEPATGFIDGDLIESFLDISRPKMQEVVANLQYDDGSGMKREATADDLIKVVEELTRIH

| Compound | IC50 (CRBN/DDB1) [nM] | DC50 (ER [1]) [nM] | DC50 (ER [2]) [nM] | Dmax (ER [1]) [%] | Dmax (ER [2]) [%] | MCF7 Dmax % (ER [1]) | T47D Dmax % (ER [2]) | Dmax (ER [2]; given as number) [%] |
| --- | --- | --- | --- | --- | --- | --- | --- | --- |
| COc1cccc([C@H]2COc3cc(O)ccc3[C@H]2c2ccc(N3CCC(CN4CCN5c6ccc7c(c6OC[C@H]5C4)CN(C4CCC(=O)NC4=O)C7=O)CC3)cc2)c1 (single isomer, unassigned) [Compound A33] | < 50 | 1 to 10 | 1 to 10 | – | – | – | – | – |
| O=C1CCC(N2C(=O)c3cc4c(cc3C2=O)CN(C(=O)CN2CCC3(CC2)CCN(c2ccc([C@H]5c6ccc(O)cc6OC[C@H]5c5ccccc5)cc2)CC3)C4)C(=O)N1 (single isomer, unassigned) [Compound A54, formate] | 500 to 5000 | 10 to 100 | 1 to 10 | 25 to 50 | ≥ 75 | – | – | – |
| O=C1CCC(N2C(=O)c3cc4c(cc3C2=O)CN(C(=O)CN2CC3(CCN(c5ccc([C@H]6c7ccc(O)cc7OC[C@H]6c6ccccc6)cc5)CC3)C2)C4)C(=O)N1 (single isomer, unassigned) [Compound A55, formate] | 500 to 5000 | > 100 | > 100 | < 25 | < 25 | – | – | – |
| CC(C(=O)N1Cc2cc3c(cc2C1)C(=O)N(C1CCC(=O)NC1=O)C3=O)N1CCC2(CCN(c3ccc([C@H]4c5ccc(O)cc5OC[C@H]4c4ccccc4)cc3)CC2)CC1 (single isomer, unassigned) [Compound A57] | > 5000 | > 100 | > 100 | < 25 | < 25 | – | – | – |
| COC[C@H](C(=O)N1Cc2cc3c(cc2C1)C(=O)N(C1CCC(=O)NC1=O)C3)N1CCC2(CCN(c3ccc([C@@H]4c5ccc(O)cc5OC[C@@H]4c4ccccc4)cc3)CC2)CC1 (single isomer, unassigned) [Compound A60] | 50 to 500 | < 1 | 1 to 10 | 25 to 50 | < 25 | – | – | – |
| O=C1CCC(N2Cc3cc4c(cc3C2=O)OC[C@@H]2CN(CC3CCN(c5ccc([C@H]6c7ccc(O)cc7OC[C@H]6c6ccccc6)cn5)CC3)CCN42)C(=O)N1 (single isomer, unassigned) [Compound A61] | 50 to 500 | 1 to 10 | 1 to 10 | 25 to 50 | 50 to 75 | – | – | – |
| O=C1CCC(N2Cc3c(ccc4c3OC[C@H]3CN(CC5CC6(CCN(c7ccc([C@@H]8c9ccc(O)cc9OC[C@@H]8c8ccccc8)cn7)CC6)C5)CCN43)C2=O)C(=O)N1 (single isomer, unassigned) [Compound A65] | 50 to 500 | 1 to 10 | 1 to 10 | – | – | D (“D”; <25%) | C (“C”: 25%-50%) | – |
| O=C1CCC(N2Cc3cc(N4CCN(CC5CC6(CCN(c7ccc([C@@H]8c9ccc(O)cc9OC[C@@H]8c8ccccc8)cn7)CC6)C5)CC4)ccc3C2=O)C(=O)N1 (single isomer, unassigned) [Compound A67] | 50 to 500 | > 100 | 10 to 100 | – | – | D (“D”; <25%) | D (“D”; <25%) | – |
| O=C1CCC(N2Cc3c(ccc4c3OC[C@H]3CN(CC5CCN(c6ccc([C@@H]7c8ccc(O)cc8OC[C@@H]7c7ccccc7)cn6)CC5)CCN43)C2=O)C(=O)N1 (single isomer, unassigned) [Compound A69] | 50 to 500 | 1 to 10 | 1 to 10 | < 25 | 25 to 50 | – | – | – |
| O=C1CCC(N2Cc3cc4c(cc3C2=O)OC[C@@H]2CN(CC3CCN(c5ccc([C@@H]6c7ccc(O)cc7OC[C@@H]6c6ccccc6)cn5)CC3)CCN42)C(=O)N1 (single isomer, unassigned) [Compound A70] | 50 to 500 | > 100 | 1 to 10 | – | – | – | – | – |
| O=C1CCC(Nc2ccc(C3CCN(CC4CCN(c5ccc([C@@H]6c7ccc(O)cc7OC[C@@H]6c6ccccc6)cc5)CC4)CC3)c(F)c2)C(=O)N1 (single isomer, unassigned) [Compound A72] | 50 to 500 | > 100 | < 1 | < 25 | 25 to 50 | – | – | – |
| Cn1c(=O)n(C2CCC(=O)NC2=O)c2ccc(C3CCN(CC4CC5(CCN(c6ccc([C@@H]7c8ccc(O)cc8OC[C@@H]7c7ccccc7)cc6)CC5)C4)CC3)cc21 (single isomer, unassigned) [Compound A73] | < 50 | < 1 | < 1 | 50 to 75 | 50 to 75 | – | – | – |
| O=C1CCC(Nc2ccc(C3CCN(CC4CC5(CCN(c6ccc([C@@H]7c8ccc(O)cc8OC[C@@H]7c7ccccc7)cc6)CC5)C4)CC3)c(F)c2)C(=O)N1 (single isomer, unassigned) [Compound A75] | 50 to 500 | < 1 | 1 to 10 | 25 to 50 | 50 to 75 | – | – | – |
| O=C1CCC(N2C(=O)c3cc4c(cc3C2=O)CN(C(=O)C2CCN(C3CCN(c5ccc([C@@H]6c7ccc(O)cc7OC[C@@H]6c6ccccc6)cc5)CC3)CC2)C4)C(=O)N1 (single isomer, unassigned) [Compound A79] | 500 to 5000 | < 1 | < 1 | ≥ 75 | ≥ 75 | – | – | – |
| COc1cc(N2CCC(CN3CCN4c5cc6c(cc5OC[C@H]4C3)C(=O)N(C3CCC(=O)NC3=O)C6)CC2)ccc1[C@@H]1c2ccc(O)cc2OC[C@@H]1c1ccccc1 (single isomer, unassigned) [Compound A84, 3-((R)-3-((1-(4-((3S,4R)-7-hydroxy-3-phenylchroman-4-yl)-3-methoxyphenyl)piperidin-4-yl)methyl)-8-oxo-1,2,3,4,4a,5,8,10-octahydro-9H-pyrazino[1′,2′:4,5][1,4]oxazino[2,3-f]isoindol-9-yl)piperidine-2,6-dione] | 500 to 5000 | < 1 | < 1 | – | – | – | – | – |
| O=C1CCC(NC(=O)c2ccc(N3CCN(CC4CCN(c5ccc([C@@H]6c7ccc(O)cc7OC[C@@H]6c6ccccc6)cc5)CC4)CC3)cn2)C(=O)N1 (single isomer, unassigned) [Compound A88] | > 5000 | 1 to 10 | 1 to 10 | 50 to 75 | 50 to 75 | – | – | – |
| O=C1CC[C@H](N2Cc3c(ccc4c3OC[C@H]3CN(CC5CC6(CCN(c7ccc([C@@H]8c9ccc(O)cc9OC[C@@H]8c8ccccc8)cc7)CC6)C5)CCN43)C2=O)C(=O)N1 (single isomer, unassigned) [Compound A90] | > 5000 | 1 to 10 | < 1 | – | 50 to 75 | B (“B”: >50% and <75%) | – | – |
| O=C1CCC(Nc2ccc3c(c2)OC[C@H]2CN(CC4CCN(c5ccc([C@@H]6c7ccc(O)cc7OC[C@@H]6c6ccccc6)cc5)CC4)CCN32)C(=O)N1 (single isomer, unassigned) [Compound A91, hydrochloride] | > 5000 | 1 to 10 | 1 to 10 | – | – | – | – | – |
| O=C1CCC(NC(=O)c2ccc(N3CCN(CC4CCN(c5ccc([C@H]6c7ccc(O)cc7OC[C@H]6c6ccccc6)cc5F)CC4)CC3)cn2)C(=O)N1 (single isomer, unassigned) [Compound A100] | > 5000 | 1 to 10 | 1 to 10 | 50 to 75 | 50 to 75 | – | – | – |
| O=C1CCC(NC(=O)c2ccc3c(n2)OC[C@H]2CN(CC4CCN(c5ccc([C@@H]6c7ccc(O)cc7OC[C@@H]6c6ccccc6)cc5F)CC4)CCN32)C(=O)N1 (single isomer, unassigned) [Compound A104] | 500 to 5000 | 1 to 10 | 1 to 10 | ≥ 75 | ≥ 75 | – | – | – |
| O=C1CCN(c2ccc(N3CCC4(CC3)CC(CN3CCN(c5ccc([C@H]6c7ccc(O)cc7OC[C@H]6c6ccccc6)cc5)CC3)C4)cc2)C(=O)N1 (single isomer, unassigned) [Compound A107] | > 5000 | 1 to 10 | < 1 | 25 to 50 | 25 to 50 | – | – | – |
| COc1nc(C(=O)NC2CCC(=O)NC2=O)ccc1N1CCN(CC2CCC3(CC2)CN(c2ccc([C@@H]4c5ccc(O)cc5OC[C@@H]4c4ccccc4)cc2)C3)CC1 (single isomer, unassigned) [Compound A108] | 500 to 5000 | 1 to 10 | < 1 | 50 to 75 | ≥ 75 | – | – | 76.3 |
| O=C1CC[C@@H](NC(=O)c2ccc(N3CCC(CN4CC5(CCN(c6ccc([C@H]7c8ccc(O)cc8OC[C@H]7c7ccccc7)cc6)CC5)C4)CC3)cn2)C(=O)N1 (single isomer, unassigned) [Compound A111] | 500 to 5000 | < 1 | < 1 | 50 to 75 | 50 to 75 | – | – | – |
| COc1cc(N2CCC(CN3CCN(c4ccc(C(=O)NC5CCC(=O)NC5=O)nc4)CC3)CC2)ccc1[C@H]1c2ccc(O)cc2OC[C@H]1c1ccccc1 (single isomer, unassigned) [Compound A124] | > 5000 | < 1 | < 1 | 50 to 75 | 50 to 75 | – | – | – |
